Measured values reported in paper PMC5342591, “Development of a selected reaction monitoring mass spectrometry-based assay to detect asparaginyl endopeptidase activity in biological fluids” (Oncotarget, 2016).
Square brackets hold non-standard residues; d marks the D form. Peptide text beside a SMILES is read from it.

Key:
[1] = target: T1, recombinant human AEP (rAEP) (Homo sapiens, UniProt Q99538); assay: Michaelis-Menten / Lineweaver-Burk kinetics of rAEP with synthetic substrate, product measured by SRM-MS; format: biochemical; conditions: 16 hr incubation at 37°C; 10 ng rAEP; substrate 0.02 mM to 1.3 mM; Lineweaver-Burk plot; SRM-MS peak area of product; n = 3
T1 construct: 7xHis (N); purchased R & D Systems, Abingdon, UK; host or cells: NS0 murine myeloma cell line
T1 sequence (Q99538 18-323 limits assumed): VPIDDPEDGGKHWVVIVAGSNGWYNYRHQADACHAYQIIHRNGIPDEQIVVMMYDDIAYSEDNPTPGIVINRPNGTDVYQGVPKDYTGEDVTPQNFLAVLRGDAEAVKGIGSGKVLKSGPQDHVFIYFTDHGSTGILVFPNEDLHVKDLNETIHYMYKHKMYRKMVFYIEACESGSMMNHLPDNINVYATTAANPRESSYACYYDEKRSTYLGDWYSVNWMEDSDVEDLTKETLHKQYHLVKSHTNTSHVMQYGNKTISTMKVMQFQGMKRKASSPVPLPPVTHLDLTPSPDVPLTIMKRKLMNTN
Protocol: Figure 3 Development of Assay Conditions to Monitor AEP Activity in Plasma A. The level of hydrolysis of AEP substrate with respect to time. 2.44 ng/μl and 9.1 ng/μl of rAEP were spiked into a background of pH modified plasma (pH 5.8) and assayed by SRM-MS for the product peptide. Error bars shown are +/−SD (n = 3). B-C. Rate of AEP activity assayed with different concentrations of substrate (hpvFAANDVSKvph) ranging from 0.02 mM to 1.3 mM. Area under the curve, drawn from SRM-MS of the product peptide, was used to obtain the rate of reaction for AEP activity as shown in Michaelis-Menten Curve (B). […] D. The linearity and limit-of-detection of the AEP assay was investigated by measuring the amount of hydrolysis by 2.0 pg to 0.25 ng of rAEP spiked into 25 μl of plasma and product measured by SRM-MS of Error bars shown are +/−SEM (n = 3). The assay was repeated three times and a technical variance of 3-28% was calculated.
To optimise substrate concentration in our assay, 10 ng of rAEP was incubated with 0.02 mM to 1.3 mM of synthetic substrate for 1 hr, 4 hr (Supplementary Figure S2) or 16 hr (Figure 3B and 3C) at 37°C. The rate of reaction was determined from the amount of product formed per hour and used for Michaelis-Menten enzyme kinetic analysis (Figure 3B). […]
All samples were analysed on a 6500 Q-TRAP (AB Sciex, Warrington, UK) coupled to a nano Acquity uPLC (Waters Inc, MA, US). […]

[2] = Stability of cleaved substrate in plasma, SRM-MS; format: in vitro ADME; conditions: human plasma 25 μl diluted fivefold in assay buffer pH 5.8, 1 pmole to 1 amole spiked, ACN precipitation, n = 3
Protocol: Figure 2 Detection of Cleaved Substrate Peptide by Mass Spectrometry A-B. 10 ng of recombinant AEP (rAEP) was incubated with 1 μg (0.65 mM) synthetic substrate peptide (hpvFAANDVSKvph) overnight at 37°C. Samples were dried down by vacuum centrifuge and resuspended in LB. 5 pmole of the substrate was loaded on to the liquid chromatography column and cleaved substrate was analysed by SRM MS (A) followed by an DDA workflow (B). (A) Three SRM transitions (b4-481.25^+, b5-552.29^+, b6-623.33^+) were used to detect the cleaved substrate, sequenced as hpvFAAN (378.2^2+ precursor ion). The target peptide eluted at 32 min during the chromatographic gradient. (B) Product ion scans of precursor 378.2^2+ as analysed by DDA. C. […] Samples were resuspended in LB and analyzed by SRM MS. […]
For an assay to measure enzyme activity it is important that the product is stable for the duration of the assay and is present at a level that can be detected. The limit of detection (LOD) and stability of the product hpvFAAN were analysed by serial dilution down to 1 amole in the presence or absence of plasma using SRM MS analysis. This allowed the LOD to be calculated as 2 amole with a linear response up to 1 pmole without a plasma background (Figure 2C). […]

| SMILES | Km [1] [µM] | Stability of the product in plasma [2] |
| --- | --- | --- |
| CC(C)[C@H](NC(=O)[C@H](CC(=O)O)NC(=O)[C@H](CC(N)=O)NC(=O)[C@H](C)NC(=O)[C@H](C)NC(=O)[C@H](Cc1ccccc1)NC(=O)[C@H](NC(=O)[C@H]1CCCN1C(=O)[C@H](N)Cc1c[nH]cn1)C(C)C)C(=O)N[C@@H](CO)C(=O)N[C@@H](CCCCN)C(=O)N[C@@H](C(=O)N1CCC[C@@H]1C(=O)N[C@H](Cc1c[nH]cn1)C(=O)O)C(C)C [hpvFAANDVSKvph] (H-[dH][dP][dV]FAANDVSK[dV][dP][dH]-OH) | 400 |  |
| CC(C)[C@@H](NC(=O)[C@H]1CCCN1C(=O)[C@H](N)Cc1c[nH]cn1)C(=O)N[C@@H](Cc1ccccc1)C(=O)N[C@@H](C)C(=O)N[C@@H](C)C(=O)N[C@@H](CC(N)=O)C(=O)O [hpvFAAN] (H-[dH][dP][dV]FAAN-OH) |  | stable |
